The values that follow come from ChEMBL document CHEMBL3352287, “Cytotoxic resin glycosides from Ipomoea aquatica and their effects on intracellular Ca2+ concentrations” (J Nat Prod, 2014).

Calls of active or inactive are those of the source. The rule behind the calls is not given here. A value given as a limit tells only on which side of the number the result lay.

Assay [1] has as its system SMMC-7721. Nature of the assay: Cytotoxicity against human SMMC7721 cells at 10 uM after 48 hrs by MTT assay. Format: functional, cell-based. For orientation: Tetrazolium dyes change colour on reduction, which living cells bring about.
Assay [2] concerns HepG2. Nature of the assay: Cytotoxicity against human HepG2 cells at 10 uM after 48 hrs by MTT assay. The assay is classed as functional, cell-based.
The test system of a further assay is MG-63. The assay can be described thus: Cytotoxicity against human MG63 cells at 10 uM after 48 hrs by MTT assay. Format: functional, cell-based.
Assay [3] has as its system U2OS. Nature of the assay: Cytotoxicity against human U2OS cells at 10 uM after 48 hrs by MTT assay. Format: functional, cell-based.
Assay [4] has as its system MCF7. The assay can be described thus: Cytotoxicity against human MCF7 cells at 10 uM after 48 hrs by MTT assay. Format: functional, cell-based.
In another assay the test system is NCI/ADR-RES. The assay can be described thus: Cytotoxicity against human MCF7/ADR cells at 10 uM after 48 hrs by MTT assay. Format: functional, cell-based.
For assay [5], the system named is SMMC-7721. The assay can be described thus: Cytotoxicity against human SMMC7721 cells after 48 hrs by MTT assay. The assay is classed as functional, cell-based. Particulars: SMMC-7721, 48 h.
The test system of assay [6] is HepG2. The assay can be described thus: Cytotoxicity against human HepG2 cells after 48 hrs by MTT assay. The note with it: HepG2, 48 h. Format: functional, cell-based.
Assay [7] is described as follows: Cytotoxicity against human MG63 cells after 48 hrs by MTT assay. Format: functional, cell-based. Particulars: MG-63, 48 h.
Assay [8] concerns U2OS. Nature of the assay: Cytotoxicity against human U2OS cells after 48 hrs by MTT assay. Format: functional, cell-based.
Assay [9] deals with MCF7. The assay can be described thus: Cytotoxicity against human MCF7 cells after 48 hrs by MTT assay. Format: functional, cell-based. The note with it: MCF7, 48 h.
Assay [10] in a line: Cytotoxicity against human MCF7/ADR cells after 48 hrs by MTT assay. Particulars: NCI/ADR-RES. Format: functional, cell-based.
Assay [11] has as its system HepG2. The assay can be described thus: Increase in intracellular Ca2+ level in human HepG2 cells assessed as increase in fluorescence intensity at 30 uM after 6 hrs by Fluo-3 AM -based fluorescence assay relative to control. Format: functional.
In assay [12] the test system is HepG2. Nature of the assay: Cell cycle arrest in human HepG2 cells assessed as increase in G0/G1 phase cells after 48 hrs using propidium iodide by flow cytometry. The assay is classed as functional, cell-based.
The subject of assay [13] is HepG2. The assay can be described thus: Cell cycle arrest in human HepG2 cells assessed as increase in subG1 phase cells at 8 uM after 48 hrs using propidium iodide by flow cytometry. The assay is classed as functional, cell-based.

Turning to `CCCCCCCC(=O)O[C@@H]1[C@@H](O)[C@H](C)O[C@@H](O[C@@H]2[C@@H](O[C@@H]3O[C@H](CO)[C@@H](O)[C@H](O)[C@H]3O)[C@@H](OC(=O)CCCCCCC)[C@H](O[C@@H]3[C@H]4OC(=O)CCCCCCCCC[C@H](CCCCC)O[C@@H]5O[C@H](C)[C@H](O)[C@H](O)[C@H]5O[C@H](O[C@H]3C)[C@@H]4O)O[C@H]2C)[C@@H]1O`, the outcome in the assay on SMMC-7721 [1], with HepG2 [2], in the assay on MG-63, in the assay with U2OS [3], in the assay with MCF7 [4] and in the assay with NCI/ADR-RES was inactive.
What is called IC50 is the point on the concentration scale where inhibition reaches its midpoint. In the case of `CCCCCCCCCC(=O)O[C@H]1[C@H](O[C@@H]2[C@H]3OC(=O)CCCCCCCCC[C@H](CCCCC)O[C@@H]4O[C@H](C)[C@H](O)[C@H](O)[C@H]4O[C@H](O[C@H]2C)[C@@H]3O)O[C@@H](C)[C@H](O[C@@H]2O[C@@H](C)[C@H](OC(=O)CCCCCCC)[C@@H](O)[C@H]2O)[C@H]1O[C@@H]1O[C@@H](C)[C@H](O)[C@@H](O)[C@H]1O`, the IC50 is above 10 µM with SMMC-7721 [5]; 4.9 µM with HepG2 [6]; 6 µM in assay [7] (read-out: IC50); above 10 µM in the assay with U2OS [8]; 9.8 µM in the assay on MCF7 [9]; above 10 µM in assay [10]. Moreover, the outcome in the assay with HepG2 [11] was Active.
Regarding `COc1cccc2c1C(=O)c1c(O)c3c(c(O)c1C2=O)C[C@@](O)(C(=O)CO)C[C@@H]3O[C@H]1C[C@H](N)[C@H](O)[C@H](C)O1` [DOXORUBICIN], the IC50 in the assay on SMMC-7721 [5] was determined as 1.1 µM; in the assay on HepG2 [6], 0.36 µM; in assay [7], 0.74 µM; in the assay on U2OS [8], 0.65 µM; in the assay on MCF7 [9], 0.46 µM.
With `CCCCCCCC(=O)O[C@@H]1[C@@H](O)[C@@H](O)[C@H](O[C@@H]2[C@@H](O[C@@H]3O[C@H](CO)[C@@H](O)[C@H](O)[C@H]3O)[C@@H](OC(=O)CCCCCCC)[C@H](O[C@@H]3[C@H]4OC(=O)CCCCCCCCC[C@H](CCCCC)O[C@@H]5O[C@H](C)[C@H](O)[C@H](O)[C@H]5O[C@H](O[C@H]3C)[C@@H]4O)O[C@H]2C)O[C@H]1C`, the 50% inhibitory concentration (IC50) in the assay with SMMC-7721 [5] is above 10 µM; with HepG2 [6] it was 8.5 µM; in assay [7] (read-out: IC50), 5.4 µM; with U2OS [8], above 10 µM; in the assay with MCF7 [9], 7.4 µM; in assay [10] it was above 10 µM. In addition, in the assay with HepG2 [11], the Activity is listed as above 200%.
Take `CCCCCCCC(=O)O[C@@H]1[C@@H](O)[C@@H](O)[C@H](O[C@@H]2[C@@H](O[C@@H]3O[C@@H](C)[C@H](O)[C@@H](O)[C@H]3O)[C@@H](OC(=O)CCCCCCC)[C@H](O[C@@H]3[C@H]4OC(=O)CCCCCCCCC[C@H](CCCCC)O[C@@H]5O[C@H](C)[C@H](O)[C@H](O)[C@H]5O[C@H](O[C@H]3C)[C@@H]4O)O[C@H]2C)O[C@H]1C`: the IC50 with SMMC-7721 [5] is 9 µM; in the assay with HepG2 [6], 5.2 µM; in [7] (read-out: IC50) it was 3.7 µM; in the assay with U2OS [8], 9.6 µM; with MCF7 [9] it was 5 µM; in assay [10], above 10 µM. Besides, the result in the assay with HepG2 [11] was Active.
As for `CCCCCCCC(=O)O[C@@H]1[C@@H](O)[C@@H](O)[C@H](O[C@@H]2[C@@H](O[C@@H]3O[C@@H](C)[C@H](O)[C@@H](O)[C@H]3O)[C@@H](OC(=O)CCCCC)[C@H](O[C@@H]3[C@H]4OC(=O)CCCCCCCCC[C@H](CCCCC)O[C@@H]5O[C@H](C)[C@H](O)[C@H](O)[C@H]5O[C@H](O[C@H]3C)[C@@H]4O)O[C@H]2C)O[C@H]1C`, the IC50 in the assay on SMMC-7721 [5] is 6.3 µM; in the assay on HepG2 [6], 2.4 µM; in [7] (read-out: IC50), 5.3 µM; with U2OS [8], 4.5 µM; in the assay with MCF7 [9], 4.2 µM; in assay [10], above 10 µM. The Activity result in the assay on HepG2 [12] was “Dose-dependent effect”. Further, the result in the assay with HepG2 [13] and with HepG2 [11] was Active.
`CCCCCCCC(=O)O[C@@H]1[C@@H](O)[C@@H](O)[C@H](O[C@@H]2[C@@H](O[C@@H]3O[C@@H](C)[C@H](O)[C@@H](O)[C@H]3O)[C@@H](OC(=O)[C@@H](C)CC)[C@H](O[C@@H]3[C@H]4OC(=O)CCCCCCCCC[C@H](CCCCC)O[C@@H]5O[C@H](C)[C@H](O)[C@H](O)[C@H]5O[C@H](O[C@H]3C)[C@@H]4O)O[C@H]2C)O[C@H]1C`: the IC50 is 9.5 µM in the assay with SMMC-7721 [5]; 3.7 µM in the assay with HepG2 [6]; 7.7 µM in assay [7] (read-out: IC50); 9.4 µM with U2OS [8]; 4.1 µM with MCF7 [9]; above 10 µM in [10]. In addition, in the assay on HepG2 [11], the result was Active.
